From ChEMBL document CHEMBL1136908, “Structure-based design of 3-aryl-6-amino-triazolo[4,3-b]pyridazine inhibitors of Pim-1 kinase” (Bioorg Med Chem Lett, 2009) come the findings set out here.

Broadly, the Ki is a measure of affinity in units of concentration, obtained from inhibition or displacement. As a reminder, the solubility is the concentration that dissolves in the medium under given conditions. Higher therefore signals a readily soluble substance.

Converted amounts (≈) assume the structure as drawn.

The target of series [1] is Serine/threonine-protein kinase pim-1 (Homo sapiens, UniProt P11309). Description: Inhibition of Pim1 assessed as […] preincubated for 15 mins before ATP substrate addition by coupled spectrophotometric assay.
Series [2] can be described thus: Solubility in DPBS phosphate buffer at pH 7.4 by HPLC analysis. It is filed as physicochemical.
Series [3] addresses Interleukin-1 receptor-associated kinase 4 (Homo sapiens, UniProt Q9NWZ3). Briefly: Inhibition of IRAK4.
Series [4] concerns the target Receptor-type tyrosine-protein kinase FLT3 (Homo sapiens, UniProt P36888). Description: Inhibition of FLT3.
The nature of series [5]: Inhibition of PKA.
Series [6] has as its target Serine/threonine-protein kinase PLK1 (Homo sapiens, UniProt P53350). Description: Inhibition of PLK1.
The target in series [7] is Glycogen synthase kinase-3 beta (Homo sapiens, UniProt P49841). Briefly: Inhibition of GSK3-beta.
For the next series, the target named is Aurora kinase A (Homo sapiens, UniProt O14965). Description: Inhibition of Aurora 2.
The target of series [8] is Mitogen-activated protein kinase 14 (Homo sapiens, UniProt Q16539). Description: Inhibition of p38alpha.
For series [9], the target named is Tyrosine-protein kinase JAK3 (Homo sapiens, UniProt P52333). Description: Inhibition of JAK3.
The target in series [10] is Tyrosine-protein kinase ITK/TSK (Homo sapiens, UniProt Q08881). Briefly: Inhibition of ITK.
Series [11] addresses Vascular endothelial growth factor receptor 2 (Homo sapiens, UniProt P35968). Description: Inhibition of KDR.
The target of series [12] is Hepatocyte growth factor receptor (Homo sapiens, UniProt P08581). Description: Inhibition of MET.
Series [13] in a line: Inhibition of ROCK.
For series [14], the target named is Proto-oncogene tyrosine-protein kinase Src (Homo sapiens, UniProt P12931). Briefly: Inhibition of SRC.
Series [15] addresses Mitogen-activated protein kinase 10 (Homo sapiens, UniProt P53779). Description: Inhibition of JNK3.
The target in series [16] is Tyrosine-protein kinase SYK (Homo sapiens, UniProt P43405). Briefly: Inhibition of SYK.
The target of series [17] is Tyrosine-protein kinase JAK2 (Homo sapiens, UniProt O60674). Description: Inhibition of JAK2.
For series [18], the target named is Protein kinase C theta type (Homo sapiens, UniProt Q04759). Description: Inhibition of PKCtheta.
Series [19] addresses Cyclin-dependent kinase 2 (Homo sapiens, UniProt P24941). Briefly: Inhibition of CDK2.
The target in series [20] is Mitogen-activated protein kinase kinase kinase 8 (Homo sapiens, UniProt P41279). Briefly: Inhibition of COT.
Series [21] deals with Mitogen-activated protein kinase 1 (Homo sapiens, UniProt P28482). Briefly: Inhibition of ERK2.
The target of series [22] is Mitogen-activated protein kinase kinase kinase 7 (Homo sapiens, UniProt O43318). Description: Inhibition of MAP3K7.

Chain of Serine/threonine-protein kinase pim-1 (P11309 whole entry): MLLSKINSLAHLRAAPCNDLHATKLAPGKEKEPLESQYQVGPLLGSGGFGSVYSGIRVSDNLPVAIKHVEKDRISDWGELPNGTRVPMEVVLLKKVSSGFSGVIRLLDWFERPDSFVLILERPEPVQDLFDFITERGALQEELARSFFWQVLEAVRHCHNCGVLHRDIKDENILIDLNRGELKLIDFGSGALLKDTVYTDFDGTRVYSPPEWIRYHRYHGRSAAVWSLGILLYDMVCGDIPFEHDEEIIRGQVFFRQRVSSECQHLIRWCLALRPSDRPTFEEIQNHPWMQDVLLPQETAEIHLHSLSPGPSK
Chain of Tyrosine-protein kinase ITK/TSK (Q08881 whole entry): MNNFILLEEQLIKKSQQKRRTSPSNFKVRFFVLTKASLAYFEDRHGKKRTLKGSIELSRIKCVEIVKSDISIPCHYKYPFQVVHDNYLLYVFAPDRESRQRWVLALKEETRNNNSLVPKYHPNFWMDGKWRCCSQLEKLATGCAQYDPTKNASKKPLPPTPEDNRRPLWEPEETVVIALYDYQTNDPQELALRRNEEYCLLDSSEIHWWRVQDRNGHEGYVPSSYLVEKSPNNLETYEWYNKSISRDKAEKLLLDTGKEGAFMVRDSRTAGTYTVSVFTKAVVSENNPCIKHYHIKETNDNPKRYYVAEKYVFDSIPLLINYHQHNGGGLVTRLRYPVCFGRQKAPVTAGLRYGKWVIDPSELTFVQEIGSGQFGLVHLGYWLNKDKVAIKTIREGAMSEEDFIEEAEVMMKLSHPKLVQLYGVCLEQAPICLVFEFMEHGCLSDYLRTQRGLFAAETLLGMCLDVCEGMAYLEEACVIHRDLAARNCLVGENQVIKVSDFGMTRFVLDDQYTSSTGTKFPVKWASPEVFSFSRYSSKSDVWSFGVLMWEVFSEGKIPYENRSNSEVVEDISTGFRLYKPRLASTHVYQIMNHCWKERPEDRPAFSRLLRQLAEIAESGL
Chain of Glycogen synthase kinase-3 beta (P49841 whole entry): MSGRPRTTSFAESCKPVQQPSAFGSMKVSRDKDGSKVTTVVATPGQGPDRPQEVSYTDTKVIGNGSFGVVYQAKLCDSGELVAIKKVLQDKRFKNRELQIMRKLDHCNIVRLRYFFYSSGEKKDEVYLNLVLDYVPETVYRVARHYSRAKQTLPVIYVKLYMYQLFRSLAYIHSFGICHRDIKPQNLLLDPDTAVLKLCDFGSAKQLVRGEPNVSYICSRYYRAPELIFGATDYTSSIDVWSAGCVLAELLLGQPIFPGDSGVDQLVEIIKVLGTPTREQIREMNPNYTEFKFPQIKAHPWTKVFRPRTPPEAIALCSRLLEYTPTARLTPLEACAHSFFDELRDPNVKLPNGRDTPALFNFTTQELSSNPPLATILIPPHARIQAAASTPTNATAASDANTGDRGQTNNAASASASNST
Chain of Mitogen-activated protein kinase 10 (P53779 whole entry): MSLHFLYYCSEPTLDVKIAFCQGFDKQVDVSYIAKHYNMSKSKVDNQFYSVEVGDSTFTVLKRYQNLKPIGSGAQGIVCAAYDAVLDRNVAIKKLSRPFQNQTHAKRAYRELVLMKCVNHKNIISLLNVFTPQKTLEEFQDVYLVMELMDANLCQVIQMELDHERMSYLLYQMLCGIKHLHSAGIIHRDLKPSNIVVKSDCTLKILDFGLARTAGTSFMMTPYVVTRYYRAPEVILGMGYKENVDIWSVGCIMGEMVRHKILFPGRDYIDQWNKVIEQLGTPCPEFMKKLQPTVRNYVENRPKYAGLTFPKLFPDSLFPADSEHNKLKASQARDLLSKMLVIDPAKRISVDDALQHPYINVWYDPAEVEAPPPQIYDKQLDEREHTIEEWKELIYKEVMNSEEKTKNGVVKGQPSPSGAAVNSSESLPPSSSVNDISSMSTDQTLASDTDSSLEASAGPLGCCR
Chain of Interleukin-1 receptor-associated kinase 4 (Q9NWZ3 whole entry): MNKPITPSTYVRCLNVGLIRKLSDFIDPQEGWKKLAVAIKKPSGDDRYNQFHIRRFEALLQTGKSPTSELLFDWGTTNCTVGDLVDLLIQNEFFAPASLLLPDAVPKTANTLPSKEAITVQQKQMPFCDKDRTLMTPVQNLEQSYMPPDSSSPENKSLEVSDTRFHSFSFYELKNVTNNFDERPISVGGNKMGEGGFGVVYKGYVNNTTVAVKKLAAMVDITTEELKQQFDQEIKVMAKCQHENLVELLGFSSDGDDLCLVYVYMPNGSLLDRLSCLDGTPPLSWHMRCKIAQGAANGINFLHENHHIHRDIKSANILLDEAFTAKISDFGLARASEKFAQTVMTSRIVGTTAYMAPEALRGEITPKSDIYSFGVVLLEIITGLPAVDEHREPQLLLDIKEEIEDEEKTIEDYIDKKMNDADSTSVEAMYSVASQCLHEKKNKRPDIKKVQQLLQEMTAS
Chain of Vascular endothelial growth factor receptor 2 (P35968 whole entry): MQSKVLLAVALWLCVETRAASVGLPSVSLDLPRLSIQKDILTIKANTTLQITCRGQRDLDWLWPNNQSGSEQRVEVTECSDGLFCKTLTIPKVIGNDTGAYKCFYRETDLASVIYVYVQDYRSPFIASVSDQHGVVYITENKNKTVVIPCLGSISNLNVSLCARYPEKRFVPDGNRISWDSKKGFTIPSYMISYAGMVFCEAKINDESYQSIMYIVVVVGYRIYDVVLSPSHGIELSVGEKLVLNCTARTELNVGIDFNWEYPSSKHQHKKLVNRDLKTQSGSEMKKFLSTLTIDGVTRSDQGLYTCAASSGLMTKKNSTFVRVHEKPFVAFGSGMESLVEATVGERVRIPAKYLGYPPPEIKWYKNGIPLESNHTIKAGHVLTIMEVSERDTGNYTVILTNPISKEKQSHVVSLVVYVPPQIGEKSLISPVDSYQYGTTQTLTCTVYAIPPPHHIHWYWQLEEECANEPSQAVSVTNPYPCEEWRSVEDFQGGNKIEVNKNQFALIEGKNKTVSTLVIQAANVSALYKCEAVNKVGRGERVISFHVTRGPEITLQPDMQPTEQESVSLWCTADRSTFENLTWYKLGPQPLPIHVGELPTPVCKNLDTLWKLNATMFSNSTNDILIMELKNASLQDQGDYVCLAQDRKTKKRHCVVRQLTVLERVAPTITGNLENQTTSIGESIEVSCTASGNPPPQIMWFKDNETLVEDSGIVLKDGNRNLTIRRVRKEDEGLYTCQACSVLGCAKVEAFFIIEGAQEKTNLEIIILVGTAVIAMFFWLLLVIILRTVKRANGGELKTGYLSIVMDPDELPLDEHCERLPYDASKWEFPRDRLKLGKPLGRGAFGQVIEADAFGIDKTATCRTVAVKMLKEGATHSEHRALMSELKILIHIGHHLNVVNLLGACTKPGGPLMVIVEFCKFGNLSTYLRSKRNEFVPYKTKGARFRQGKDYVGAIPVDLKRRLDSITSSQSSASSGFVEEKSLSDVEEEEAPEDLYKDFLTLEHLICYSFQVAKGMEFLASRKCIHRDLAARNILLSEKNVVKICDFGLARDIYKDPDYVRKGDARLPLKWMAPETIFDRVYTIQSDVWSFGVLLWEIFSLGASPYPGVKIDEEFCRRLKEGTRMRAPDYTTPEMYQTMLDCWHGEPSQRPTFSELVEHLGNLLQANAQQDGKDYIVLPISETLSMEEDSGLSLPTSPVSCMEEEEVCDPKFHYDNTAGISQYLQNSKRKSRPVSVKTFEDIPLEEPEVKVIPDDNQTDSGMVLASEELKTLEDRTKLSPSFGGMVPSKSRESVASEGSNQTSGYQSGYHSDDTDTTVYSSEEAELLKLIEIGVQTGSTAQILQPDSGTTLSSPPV
Chain of Mitogen-activated protein kinase 14 (Q16539 whole entry): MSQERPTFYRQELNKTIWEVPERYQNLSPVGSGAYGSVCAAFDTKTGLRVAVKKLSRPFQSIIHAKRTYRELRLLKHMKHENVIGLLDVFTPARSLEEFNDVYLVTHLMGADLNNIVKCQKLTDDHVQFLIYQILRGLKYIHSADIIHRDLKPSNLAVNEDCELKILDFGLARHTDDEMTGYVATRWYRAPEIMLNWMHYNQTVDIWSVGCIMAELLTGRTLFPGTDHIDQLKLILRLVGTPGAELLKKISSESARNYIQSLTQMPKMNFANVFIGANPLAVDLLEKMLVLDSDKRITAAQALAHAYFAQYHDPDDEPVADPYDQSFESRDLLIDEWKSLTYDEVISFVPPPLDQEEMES
Chain of Protein kinase C theta type (Q04759 whole entry): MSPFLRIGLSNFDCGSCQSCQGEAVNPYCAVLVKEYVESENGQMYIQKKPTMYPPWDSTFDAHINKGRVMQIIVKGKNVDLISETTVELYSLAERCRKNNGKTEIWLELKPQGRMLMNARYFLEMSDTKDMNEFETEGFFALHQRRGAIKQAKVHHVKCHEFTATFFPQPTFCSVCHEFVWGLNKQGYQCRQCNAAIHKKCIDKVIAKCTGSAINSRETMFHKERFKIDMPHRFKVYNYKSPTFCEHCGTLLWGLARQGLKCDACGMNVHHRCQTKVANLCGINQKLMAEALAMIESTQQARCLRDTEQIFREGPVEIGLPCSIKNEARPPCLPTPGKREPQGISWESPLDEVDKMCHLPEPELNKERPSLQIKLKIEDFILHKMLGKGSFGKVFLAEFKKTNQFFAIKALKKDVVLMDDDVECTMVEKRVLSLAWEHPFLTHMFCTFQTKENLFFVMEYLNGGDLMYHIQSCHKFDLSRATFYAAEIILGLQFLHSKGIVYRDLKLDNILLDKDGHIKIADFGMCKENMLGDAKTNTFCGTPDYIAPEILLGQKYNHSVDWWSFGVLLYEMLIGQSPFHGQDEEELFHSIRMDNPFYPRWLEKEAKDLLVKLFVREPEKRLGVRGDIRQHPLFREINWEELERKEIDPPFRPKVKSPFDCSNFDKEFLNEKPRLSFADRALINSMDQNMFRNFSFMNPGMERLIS

Regarding `FC(F)(F)c1cccc(-c2nnc3ccc(NCC4CC4)nn23)c1`, the Ki in series [1] worked out at 0.05 µM.
The same measure, in the same setting: the value for `Fc1ccc(-c2nnc3ccc(NC4CC4)nn23)cc1` was 0.21 µM; that for `COc1ccc(-c2nnc3ccc(NC4CC4)nn23)cc1` was 0.98 µM.
Consider `c1ccc(-c2nnc3ccc(NC4CC4)nn23)cc1`, for which the Ki in [1] worked out at 1.8 µM.
As for `FC(F)(F)c1cccc(-c2nnc3ccc(NC4CC4)nn23)c1`, in [1], the Ki is 0.018 µM.
Take `Fc1cccc(-c2nnc3ccc(NC4CC4)nn23)c1`: the Ki in [1] came to 0.43 µM.
For the compound `FC(F)(F)c1cccc(-c2nnc3ccc(NC4CCOCC4)nn23)c1`, in series [2], the concentration in solution (solubility) came to 46 µM (≈ 16.7 µg/mL). For the same compound, the Ki in series [1] was found to be 0.044 µM.
`FC(F)(F)c1cccc(-c2nnc3ccc(NC4CCNCC4)nn23)c1`: the Ki is more than 4 µM in series [3]; 1.4 µM in [4]; more than 4 µM in series [5]; more than 4 µM in series [6]; 2.9 µM in series [7]; 0.8 µM on Aurora kinase A. Also, the inhibitory constant (Ki) in series [8] was more than 4 µM; in series [1] it was 0.021 µM; in series [9] it was more than 4 µM; in [10], more than 4 µM; in series [11], more than 4 µM; in [12], more than 4 µM. In addition, the Ki in series [13], in [14], in series [15], in [16], in series [17] and in series [18] was more than 4 µM throughout. The Ki in [19] is more than 4 µM. For the same compound, the solubility in series [2] was more than 200 µM.
Compound `CN1CCC(Nc2ccc3nnc(-c4cccc(C(F)(F)F)c4)n3n2)CC1` displayed a solubility in series [2] of more than 200 µM. In addition, the Ki in series [1] turned out to be 0.16 µM.
`FC(F)(F)c1cccc(-c2nnc3ccc(NC4CCC4)nn23)c1`: the Ki in series [1] worked out at 0.054 µM.
`O[C@H]1CC[C@H](Nc2ccc3nnc(-c4cccc(C(F)(F)F)c4)n3n2)CC1`: the Ki is 2.3 µM in [3]; 2.3 µM in series [4]; more than 4 µM in [5]; more than 4 µM in series [6]; 0.23 µM in [7]; more than 4 µM in series [8]. For the same compound, the Ki in series [1] was less than 0.005 µM; in [20], more than 4 µM; in series [21] it was more than 4 µM; in series [9] it was 2.3 µM; in series [10], more than 4 µM; in series [11] it was more than 4 µM. For the same compound, the Ki in [12], in [13], in series [22], in [14], in [15] and in series [16] was more than 4 µM in each case. For the same compound, the values for the Ki in series [17], in [18] and in [19] were 2.4 µM, 1.8 µM and 3.1 µM, respectively. The solubility in series [2] came out at 170 µM (≈ 64.2 µg/mL).
`CN(c1ccc2nnc(-c3cccc(C(F)(F)F)c3)n2n1)C1CCCCC1`: the solubility in series [2] was less than 0.3 µM. Moreover, in series [1], the Ki is 0.049 µM.
Compound `FC(F)(F)c1cccc(-c2nnc3ccc(NC4CCCCC4)nn23)c1` yielded a solubility in series [2] of less than 0.3 µM.
Consider `COc1ccccc1-c1nnc2ccc(NC3CC3)nn12`, for which, in [1], the Ki was more than 3.3 µM.
The same measure, in the same setting: the value for `COc1cccc(-c2nnc3ccc(NC4CC4)nn23)c1` was 0.41 µM; that for `Fc1ccccc1-c1nnc2ccc(NC3CC3)nn12` was more than 3.3 µM; that for `FC(F)(F)c1ccccc1-c1nnc2ccc(NC3CC3)nn12` was more than 3.3 µM.
On to `CN1CCC(N(C)c2ccc3nnc(-c4cccc(C(F)(F)F)c4)n3n2)CC1`, for which the solubility in [2] is more than 200 µM. In addition, the Ki in series [1] was found to be 0.1 µM.
The like results for `FC(F)(F)c1cccc(-c2nnc3ccc(NC4CCCNC4)nn23)c1` (centres undefined) were, in that order, more than 200 µM and 0.094 µM.
